In patent publication US8377870B2, “Antimicrobial aqueous solution and its preparation method” (Dentrochemical Co., Ltd., priority 2008, dated 2013):

What was measured:
bacteria and fungi = test: growth of bacteria and fungi with diluted ε-polylysine by itself; type: cell-based; settings: ε-polylysine by itself diluted down to about 6.25 μg/ml
Pseudomonas = test: successive 2-fold dilution in test tubes, visual observation of growth of bacteria; type: cell-based; design: key to growth of bacteria, Dilution rate 0 / growth of bacteria, Dilution rate ×2 / growth of bacteria, Dilution rate ×4: visually observing a growth of bacteria, and the observation result is shown by marks of + and −; visually observing a growth of bacteria, and the observation result is shown by marks of + and −
Method: Further, successive 2-fold dilutions […] media of ½ concentration; 5 ml of the applicable diluted solution at each fold was separately poured into dual test tubes, for preparation; while simultaneously preparing diluted solutions of ε-polylysine only in test tubes as a comparative test, in the same manner as the above; and one droplet of an inoculum of Pseudomonas was inoculated into each diluted solution, followed by shaking and culturing at 37° C. for 18 hours. Judgment of each activity was conducted by visually observing a growth of bacteria, and the observation result is shown by marks of + and −.

[1] = test system: Pseudomonas aeruginosa, JCM 5961; test: growth curve of Pseudomonas by optical density measuring method, liquid culture (½ TS medium); type: cell-based
Method: 100 mg of a sucrose monolaurate (Ryoto Sugar Ester L1695 produced by Mitsubishi-Kagaku Foods Corporation) was dissolved in 1 liter of a sterilized deionized water, the resultant solution was heated to 50° C., 50 mg of monolaurin (Taiyo Kagaku Co., Ltd.) was added thereinto followed by stirring, the dissolution thereof was then confirmed, and the resultant solution was subsequently cooled down to a room temperature. Added into the solution was 50 mg of an ε-polylysine product (50% dextrin powder produced by Chisso Corporation; containing 50% of ε-polylysine bromate and 50% of dextrin), followed by dissolution thereof, to obtain an antimicrobial aqueous solution. This antimicrobial aqueous solution contained 25 μg/ml of the ε-polylysine, 50 μg/ml of the monolaurin, and 100 μg/ml of the sucrose monolaurate. Here, used as the monolaurin was that recrystallized by means of hexane, because a monolaurin of high purity was required. […]

[2] = acute toxicity; cited from earlier work
[3] = 37° C. for 18 hours, start: ε-polylysine only 50 μg/ml, or ε-polylysine 8 μg/ml (fix) + diglycerol monolaurate 50 μg/ml

Substance: ε-polylysine
- effect on growth of bacteria and fungi (bacteria and fungi): promote growth of bacteria and fungi
- growth of bacteria, Dilution rate 0 (Pseudomonas; [3]): −
- growth of bacteria, Dilution rate ×2 (Pseudomonas; [3]): −
- growth of bacteria, Dilution rate ×4 (Pseudomonas; [3]): −
- dilutions in which growth of bacteria was found (Pseudomonas; ε-polylysine only, start 50 μg/ml, successive 2-fold dilution): ≥ 8 fold
- growth of bacteria (growth curve, FIG. 2) ([1]; 10 μg/ml of each component named in the sample code, compared with control without additive): growth of bacteria to the similar level as a control
- lapse of time after which growth of bacteria set in (growth curve, FIG. 1) ([1]; sample codes give μg/ml (M monolaurin, PL ε-polylysine, S sucrose monolaurate)): 12 h
- LD50 [2]: > 10000 mg/kg
